Source: patent US20110280807A1, “Methods and Models for Stress-Induced Analgesia” (UNIVERSITY OF GEORGIA RESEARCH FOUNDATION, INC., priority 2005, published 2011)
“Also recorded” adds a separate entry of the source.

How the values were obtained:
[1] = system: dorsolateral periaqueductal gray; assay: PAG injection studies: microinjection into dorsolateral periaqueductal gray, stress analgesia; assay type: in vivo, rat; conditions: for basal nociceptive thresholds immediately prior to the stressor: after microinjection into dorsolateral periaqueductal gray
[2] = system: rats subjected to brief, continuous footshock; assay: Nonopioid stress-induced analgesia after brief continuous footshock, tail-flick test, systemic drug; assay type: in vivo, rat
rats [3] = assay: Tail-flick latencies in the absence of the stressor / basal nociceptive thresholds; assay type: in vivo, rat
vanilloid VR1 receptors = vanilloid VR1 receptors (Homo sapiens, UniProt Q8NER1); conditions: cited from earlier work
vanilloid VR1 receptors, sequence (Q8NER1 whole entry): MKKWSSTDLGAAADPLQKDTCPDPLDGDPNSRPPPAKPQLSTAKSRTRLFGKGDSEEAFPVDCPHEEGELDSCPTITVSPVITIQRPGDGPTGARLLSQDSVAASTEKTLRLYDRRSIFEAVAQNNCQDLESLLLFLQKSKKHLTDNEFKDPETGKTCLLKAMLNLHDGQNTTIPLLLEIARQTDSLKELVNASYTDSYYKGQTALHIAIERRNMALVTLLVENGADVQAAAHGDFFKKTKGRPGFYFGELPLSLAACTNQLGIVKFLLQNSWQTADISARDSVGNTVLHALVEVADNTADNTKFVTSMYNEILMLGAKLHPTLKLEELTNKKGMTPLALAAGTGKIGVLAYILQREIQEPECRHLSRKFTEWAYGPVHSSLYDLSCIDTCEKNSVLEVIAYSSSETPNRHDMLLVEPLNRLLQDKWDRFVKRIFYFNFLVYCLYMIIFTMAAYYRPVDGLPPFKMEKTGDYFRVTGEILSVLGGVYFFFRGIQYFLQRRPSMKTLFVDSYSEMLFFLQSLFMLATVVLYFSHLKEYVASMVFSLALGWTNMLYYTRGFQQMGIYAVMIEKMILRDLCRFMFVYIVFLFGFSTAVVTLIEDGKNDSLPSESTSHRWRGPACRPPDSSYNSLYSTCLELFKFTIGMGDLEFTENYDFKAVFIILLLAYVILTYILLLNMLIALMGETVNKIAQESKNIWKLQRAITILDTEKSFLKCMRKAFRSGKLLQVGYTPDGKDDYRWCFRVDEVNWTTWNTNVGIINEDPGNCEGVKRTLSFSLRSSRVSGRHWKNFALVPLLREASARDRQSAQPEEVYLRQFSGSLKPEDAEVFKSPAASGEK

rats [4] = assay: Tolerance studies: repeated agonist injections, then footshock stress analgesia; assay type: in vivo, rat
rats [5] = assay: Morphine antinociception in rats treated chronically with WIN55,212-2 or vehicle; assay type: in vivo, rat; conditions: morphine 2.5 mg/kg s.c. on day 15
rats [6] = assay: Δ^9-THC sensitization study (antinociception after stress or no stress); assay type: in vivo, rat; conditions: 10 mg/kg i.p. 24 h following stress or no stress; tail-flick 28-32 min after drug
[7] = 5 mg/kg i.p. 20 min prior to footshock

CCCCC/C=C\C/C=C\C/C=C\C/C=C\CCCC(=O)NCCc1c[nH]c2ccc(O)cc12 [AA-5-HT, arachidonoylserotonin]
effect on stress analgesia after site-specific administration ([1]; 10 μg into dorsolateral periaqueductal gray, 35 min before footshock): enhanced SIA; also recorded: enhanced nonopioid stress analgesia
basal nociceptive thresholds immediately prior to the stressor [1]: absence of changes in basal nociceptive thresholds
effect on stress analgesia (tail-flick latencies after footshock) ([2]; 10 mg/kg i.p., footshock 65 min following administration (FAAH inhibition study)): Potentiation of SIA; also recorded: increased the magnitude and duration of cannabinoid stress analgesia

Cc1c(C(=O)NN2CCCCC2)nn(-c2ccc(Cl)cc2Cl)c1-c1ccc(I)cc1 [AM251]
basal nociceptive thresholds (rats [3]; 5 mg/kg i.p., before the stressor): absence of changes in basal nociceptive thresholds
effect on stress analgesia (tail-flick latencies after footshock) [2, 7]: suppressed SIA; also recorded: blocked this stress analgesia

Cc1c(C(=O)NN2CCCCC2)nn(-c2ccc(Cl)cc2Cl)c1-c1ccc(Cl)cc1 [SR141716A]
tail-flick latencies in the absence of the stressor (rats [3]; no footshock, same times): failed to alter tail-flick latencies in the absence of footshock
inhibition of vanilloid VR1 receptors (vanilloid VR1 receptors): inhibits vanilloid VR1 receptors at high concentrations
effect on stress analgesia after site-specific administration ([1]; 1 μg into dorsolateral periaqueductal gray, 5 min before footshock): suppressed; also recorded: blocked nonopioid stress analgesia
basal nociceptive thresholds immediately prior to the stressor [1]: absence of changes in basal nociceptive thresholds
effect on AA-5-HT potentiation of stress analgesia ([2]; 1 mg/kg i.p. ten min prior to AA-5-HT 10 mg/kg i.p.): blocked
effect on stress analgesia (tail-flick latencies after footshock) [2, 7]: blocks SIA; also recorded: markedly attenuated

Cc1c(C(=O)c2cccc3ccccc23)c2cccc3c2n1[C@H](CN1CCOCC1)CO3 [WIN55,212-2]
stress analgesia after acute cannabinoid (rats [4]; 10 mg/kg i.p. on day 14, 24 h prior to footshock, vs vehicle): stress analgesia was increased
post-injection tail-flick latencies (tolerance to cannabinoid antinociception) (rats [4]; 10 mg/kg i.p. x 14 days, days 2, 7 and 14): higher on day 2 compared to day 7 or 14; also recorded: induced tolerance to cannabinoid antinociception
stress analgesia in cannabinoid-tolerant rats (rats [4]; chronic 10 mg/kg i.p. x 14 days, footshock 24 h after last injection, vs vehicle or acute group): SIA was attenuated; also recorded: Stress analgesia was attenuated

CCCCC/C=C\C/C=C\C/C=C\C/C=C\CCCC(=O)NCCO [anandamide, arachidonylethanolamide]
binding to VR1 (vanilloid VR1 receptors): binds to VR1 with low affinity

Oc1cc2c(cc1O)CN(C(=S)NCCc1ccc(Cl)cc1)CCC2 [capsazepine]
effect on stress analgesia (tail-flick latencies after footshock) ([2]; 10 mg/kg i.p. 20 min prior to footshock (capsazepine)): failed to alter SIA; also recorded: did not alter stress analgesia

CN1CC[C@]23c4c5ccc(O)c4O[C@H]2[C@@H](O)C=C[C@H]3[C@H]1C5 [morphine]
post-morphine tail-flick latencies (tolerance to morphine antinociception) (rats [4]; 10 mg/kg s.c. x 7 days, days 1 and 7): higher on day 1 compared to day 7
stress analgesia in morphine-tolerant rats (rats [4]; chronic morphine 10 mg/kg s.c. x 7 days vs vehicle, footshock 24 h after last injection): SIA did not differ; also recorded: No differences in stress analgesia
morphine analgesia in cannabinoid-tolerant group relative to controls (rats [5]): modest enhancement in morphine analgesia
post-morphine tail-flick latencies Mean±SEM (rats [5]; rats treated chronically with WIN55,212-2): 6.2 ± 0.25 s
post-morphine tail-flick latencies Mean±SEM (rats [5]; rats treated chronically with vehicle): 5.3 ± 0.21 s

O=C1CC[C@@]2(O)[C@H]3Cc4ccc(O)c5c4[C@@]2(CCN3CC2CC2)[C@H]1O5 [naltrexone]
effect on stress analgesia (tail-flick latencies after footshock) ([2]; 14 mg/kg i.p. 20 min prior to footshock): not naltrexone or SR144528 blocks SIA; also recorded: neither the opioid antagonist naltrexone (14 mg/kg i.p.) nor the CB2 antagonist SR144528 altered stress analgesia

CCCCCc1cc(O)c2c(c1)OC(C)(C)[C@@H]1CCC(C)=C[C@@H]21 [Δ^9-THC, Δ^9-tetrahydrocannabinol]
Δ^9-THC-induced antinociception in shocked vs non-shocked rats (rats [6]): greater in rats subjected to footshock; also recorded: greater in rats subjected previously to the stressor
effect on stress analgesia (tail-flick latencies after footshock) ([2]; 10 mg/kg i.p. 20 min prior to footshock (Δ^9-THC), vs vehicle): potentiated SIA relative to vehicle; also recorded: enhanced the magnitude and the duration of nonopioid stress analgesia

SR144528
effect on stress analgesia (tail-flick latencies after footshock) [2, 7]: not naltrexone or SR144528 blocks SIA; also recorded: neither the opioid antagonist naltrexone (14 mg/kg i.p.) nor the CB2 antagonist SR144528 altered stress analgesia
